These results are taken from ChEMBL document CHEMBL4028801, “A multifactorial approach to hepatobiliary transporter assessment enables improved therapeutic compound development” (Toxicol Sci, 2013).

Data set [1] addresses T1, ATP-binding cassette sub-family C member 4 (Homo sapiens, UniProt O15439).
T1 sequence (O15439 whole entry): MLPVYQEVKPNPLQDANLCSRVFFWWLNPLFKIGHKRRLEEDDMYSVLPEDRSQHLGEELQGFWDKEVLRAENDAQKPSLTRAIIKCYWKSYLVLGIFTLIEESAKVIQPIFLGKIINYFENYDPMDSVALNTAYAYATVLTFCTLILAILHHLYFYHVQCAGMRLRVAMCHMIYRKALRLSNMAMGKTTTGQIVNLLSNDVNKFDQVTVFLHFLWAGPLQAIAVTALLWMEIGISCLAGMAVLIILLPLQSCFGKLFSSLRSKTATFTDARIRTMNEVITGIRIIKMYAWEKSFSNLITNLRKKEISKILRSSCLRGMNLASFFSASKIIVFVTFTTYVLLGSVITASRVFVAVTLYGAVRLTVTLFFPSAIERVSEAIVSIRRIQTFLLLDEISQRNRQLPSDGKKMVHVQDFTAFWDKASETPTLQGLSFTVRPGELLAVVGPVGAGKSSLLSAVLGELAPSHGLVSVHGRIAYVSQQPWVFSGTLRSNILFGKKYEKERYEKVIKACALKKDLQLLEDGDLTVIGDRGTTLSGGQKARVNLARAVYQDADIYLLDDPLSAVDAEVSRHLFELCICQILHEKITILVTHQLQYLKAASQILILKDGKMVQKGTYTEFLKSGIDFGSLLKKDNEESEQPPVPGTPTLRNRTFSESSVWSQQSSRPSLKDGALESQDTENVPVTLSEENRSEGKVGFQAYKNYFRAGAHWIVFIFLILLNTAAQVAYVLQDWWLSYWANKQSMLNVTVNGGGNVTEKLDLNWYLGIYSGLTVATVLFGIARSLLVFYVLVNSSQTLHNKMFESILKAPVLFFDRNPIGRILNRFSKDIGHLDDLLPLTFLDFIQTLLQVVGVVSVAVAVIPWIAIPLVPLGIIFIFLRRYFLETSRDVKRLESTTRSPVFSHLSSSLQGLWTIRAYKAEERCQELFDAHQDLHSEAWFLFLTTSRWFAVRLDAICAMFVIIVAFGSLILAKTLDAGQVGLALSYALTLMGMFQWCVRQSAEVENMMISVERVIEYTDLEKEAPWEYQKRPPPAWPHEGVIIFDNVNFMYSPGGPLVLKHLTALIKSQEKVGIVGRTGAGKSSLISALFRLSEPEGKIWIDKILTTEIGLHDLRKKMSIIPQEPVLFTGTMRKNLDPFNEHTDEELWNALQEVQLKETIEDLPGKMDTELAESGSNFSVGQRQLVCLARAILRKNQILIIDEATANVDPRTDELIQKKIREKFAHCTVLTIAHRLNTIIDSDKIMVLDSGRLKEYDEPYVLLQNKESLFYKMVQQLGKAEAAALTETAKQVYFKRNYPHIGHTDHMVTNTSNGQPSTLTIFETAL
The data set can be described thus: Inhibition of human MRP4 overexpressed in Sf9 cell membrane vesicles assessed as uptake of [3H]-estradiol-17beta-D-glucuronide in presence of ATP and GSH measured after 20 mins by membrane vesicle transport assay. In kind it is ADME, cell-based.

Data set [2] is described as follows: AUC in patient with advanced phase CML and Ph+ ALL at 100 mg, po BID after 12 hrs. Also noted: dose 100 mg, time < 12 hr, route oral. In kind it is ADME, organism-based. Particulars: human, in vivo.
Data set [3] in a line: Drug concentration at steady state in patient with chronic phase CML at 70 to 90 mg, po BID after 12 hrs. In kind it is ADME, organism-based. Particulars: human, in vivo, read-out: Css.
The nature of data set [4]: Drug concentration at steady state in patient with advanced phase CML and Ph+ ALL at 100 mg, po BID after 12 hrs. In kind it is ADME, organism-based. Particulars: human, in vivo, read-out: Css.
Data set [5] in a line: Ratio of drug concentration at steady state in patient with advanced phase CML and Ph+ ALL at 100 mg, po BID after 12 hrs to IC50 for human MRP4 overexpressed in Sf9 insect cells. In kind it is ADME, organism-based. The note with it: in vivo.
Data set [6] concerns the target Bile salt export pump (Homo sapiens, UniProt O95342). The data set can be described thus: Inhibition of human BSEP overexpressed in Sf9 cell membrane vesicles assessed as uptake of [3H]-taurocholate in presence of ATP measured after 15 to 20 mins by membrane vesicle transport assay. In kind it is ADME, cell-based.
A short description of data set [7]: Ratio of drug concentration at steady state in patient with advanced phase CML and Ph+ ALL at 100 mg, po BID after 12 hrs to IC50 for human BSEP overexpressed in Sf9 insect cells. In kind it is ADME, organism-based. Particulars: in vivo.
For data set [8], the target named is ATP-binding cassette sub-family C member 2 (Homo sapiens, UniProt Q92887). The data set can be described thus: Inhibition of human MRP2 overexpressed in Sf9 cell membrane vesicles assessed as uptake of [3H]-estradiol-17beta-D-glucuronide in presence of ATP and GSH measured after 20 mins by membrane vesicle transport assay.
Data set [9] can be described thus: Ratio of drug concentration at steady state in patient with chronic phase CML at 70 to 90 mg, po BID after 12 hrs to IC50 for human BSEP overexpressed in Sf9 insect cells. In kind it is ADME, organism-based. The note with it: in vivo.
The nature of data set [10]: AUC in patient with chronic phase CML at 70 to 90 mg, po BID after 12 hrs. In kind it is ADME, organism-based. Particulars: human, in vivo.
The target in data set [11] is ATP-binding cassette sub-family C member 3 (Homo sapiens, UniProt O15438). The data set can be described thus: Inhibition of human MRP3 overexpressed in Sf9 insect cell membrane vesicles assessed as uptake of [3H]-estradiol-17beta-D-glucuronide in presence of ATP and GSH measured after 10 mins by membrane vesicle transport assay. In kind it is ADME, cell-based.
Data set [12] in a line: Ratio of drug concentration at steady state patient with chronic phase CML at 70 to 90 mg, po BID after 12 hrs to IC50 for human MRP4 overexpressed in Sf9 insect cells. Particulars: in vivo. In kind it is ADME, organism-based.
Data set [13] is described as follows: AUC in human at 300 to 900 mg, po QD after 24 hrs. In kind it is ADME, organism-based. Particulars: in vivo.
Data set [14] is described as follows: Drug concentration at steady state in human at 300 to 900 mg, po QD after 24 hrs. In kind it is ADME, organism-based. Particulars: in vivo, read-out: Css.
Data set [15] can be described thus: Ratio of drug concentration at steady state in human at 300 to 900 mg, po QD after 24 hrs to IC50 for human MRP2 overexpressed in Sf9 insect cells. In kind it is ADME, organism-based. The note with it: in vivo.
A short description of data set [16]: Ratio of drug concentration at steady state in human at 300 to 900 mg, po QD after 24 hrs to IC50 for human MRP4 overexpressed in Sf9 insect cells. The note with it: in vivo. In kind it is ADME, organism-based.
Data set [17] is described as follows: Ratio of drug concentration at steady state in human at 300 to 900 mg, po QD after 24 hrs to IC50 for human BSEP overexpressed in Sf9 insect cells. In kind it is ADME, organism-based. The note with it: in vivo.
A short description of data set [18]: Ratio of drug concentration at steady state in human at 20 to 40 mg, iv QD after 24 hrs to IC50 for human BSEP overexpressed in Sf9 insect cells. In kind it is ADME, organism-based. The note with it: in vivo.
Data set [19] deals with Homo sapiens. The data set can be described thus: Drug concentration at steady state in human at 20 to 40 mg, iv QD after 24 hrs. In kind it is ADME, organism-based. The note with it: in vivo.
Data set [20] is described as follows: AUC in human at 20 to 40 mg, iv QD after 24 hrs. In kind it is ADME, organism-based. Particulars: in vivo.
Data set [21] is described as follows: Drug concentration at steady state in human at 3 mg, po QD after 24 hrs. The note with it: in vivo, read-out: Css. In kind it is ADME, organism-based.
Data set [22] can be described thus: Ratio of drug concentration at steady state in human at 3 mg, po after 24 hrs to IC50 for human MRP4 overexpressed in Sf9 insect cells. The note with it: in vivo. In kind it is ADME, organism-based.
Data set [23] is described as follows: Ratio of drug concentration at steady state in human at 3 mg, po after 24 hrs to IC50 for human BSEP overexpressed in Sf9 insect cells. In kind it is ADME, organism-based. The note with it: in vivo.
Data set [24] is described as follows: AUC in human at 3 mg, po QD after 24 hrs. The note with it: in vivo. Also noted: time < 24 hr, dose 3 mg, route oral. In kind it is ADME, organism-based.

For orientation: pIC50 means the negative decadic logarithm of the IC50, by convention in mol/L. The term AUC denotes the area under the concentration-time curve, a measure of exposure. A low value points to low exposure.

pIC50: −log10 of the molar value.

Chain of Bile salt export pump (O95342 whole entry): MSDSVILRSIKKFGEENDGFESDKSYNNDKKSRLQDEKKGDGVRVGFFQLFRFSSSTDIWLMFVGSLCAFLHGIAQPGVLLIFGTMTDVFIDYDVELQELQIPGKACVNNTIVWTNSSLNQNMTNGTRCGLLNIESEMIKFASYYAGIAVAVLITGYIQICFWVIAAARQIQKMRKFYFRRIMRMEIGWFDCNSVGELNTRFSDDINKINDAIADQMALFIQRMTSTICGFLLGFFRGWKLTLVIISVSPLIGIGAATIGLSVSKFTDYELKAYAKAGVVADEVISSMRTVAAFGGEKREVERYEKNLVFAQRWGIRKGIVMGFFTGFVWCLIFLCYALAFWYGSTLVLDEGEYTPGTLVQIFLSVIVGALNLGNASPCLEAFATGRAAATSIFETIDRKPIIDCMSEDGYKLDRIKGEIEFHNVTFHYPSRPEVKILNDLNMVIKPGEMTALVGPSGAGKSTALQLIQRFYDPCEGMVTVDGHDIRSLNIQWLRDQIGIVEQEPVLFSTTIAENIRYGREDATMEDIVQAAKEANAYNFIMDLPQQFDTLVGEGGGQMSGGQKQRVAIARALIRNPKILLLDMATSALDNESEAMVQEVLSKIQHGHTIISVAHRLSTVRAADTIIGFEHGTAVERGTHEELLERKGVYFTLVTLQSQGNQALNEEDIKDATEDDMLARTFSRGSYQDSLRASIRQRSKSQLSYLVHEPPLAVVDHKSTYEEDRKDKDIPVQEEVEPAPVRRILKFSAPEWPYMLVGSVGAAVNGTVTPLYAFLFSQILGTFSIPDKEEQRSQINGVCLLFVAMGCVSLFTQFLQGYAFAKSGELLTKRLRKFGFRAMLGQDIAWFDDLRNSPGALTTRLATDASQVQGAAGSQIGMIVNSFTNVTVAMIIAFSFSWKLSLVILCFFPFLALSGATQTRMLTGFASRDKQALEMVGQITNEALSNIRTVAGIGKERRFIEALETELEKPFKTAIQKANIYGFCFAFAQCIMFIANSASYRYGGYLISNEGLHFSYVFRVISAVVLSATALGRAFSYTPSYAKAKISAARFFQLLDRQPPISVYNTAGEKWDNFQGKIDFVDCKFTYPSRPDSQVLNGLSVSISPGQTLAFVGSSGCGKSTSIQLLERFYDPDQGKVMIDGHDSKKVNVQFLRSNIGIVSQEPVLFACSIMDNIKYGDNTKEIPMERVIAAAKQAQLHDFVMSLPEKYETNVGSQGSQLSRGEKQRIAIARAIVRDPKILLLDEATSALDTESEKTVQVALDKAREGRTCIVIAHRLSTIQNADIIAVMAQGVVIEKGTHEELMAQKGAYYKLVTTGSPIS
Chain of ATP-binding cassette sub-family C member 2 (Q92887 whole entry): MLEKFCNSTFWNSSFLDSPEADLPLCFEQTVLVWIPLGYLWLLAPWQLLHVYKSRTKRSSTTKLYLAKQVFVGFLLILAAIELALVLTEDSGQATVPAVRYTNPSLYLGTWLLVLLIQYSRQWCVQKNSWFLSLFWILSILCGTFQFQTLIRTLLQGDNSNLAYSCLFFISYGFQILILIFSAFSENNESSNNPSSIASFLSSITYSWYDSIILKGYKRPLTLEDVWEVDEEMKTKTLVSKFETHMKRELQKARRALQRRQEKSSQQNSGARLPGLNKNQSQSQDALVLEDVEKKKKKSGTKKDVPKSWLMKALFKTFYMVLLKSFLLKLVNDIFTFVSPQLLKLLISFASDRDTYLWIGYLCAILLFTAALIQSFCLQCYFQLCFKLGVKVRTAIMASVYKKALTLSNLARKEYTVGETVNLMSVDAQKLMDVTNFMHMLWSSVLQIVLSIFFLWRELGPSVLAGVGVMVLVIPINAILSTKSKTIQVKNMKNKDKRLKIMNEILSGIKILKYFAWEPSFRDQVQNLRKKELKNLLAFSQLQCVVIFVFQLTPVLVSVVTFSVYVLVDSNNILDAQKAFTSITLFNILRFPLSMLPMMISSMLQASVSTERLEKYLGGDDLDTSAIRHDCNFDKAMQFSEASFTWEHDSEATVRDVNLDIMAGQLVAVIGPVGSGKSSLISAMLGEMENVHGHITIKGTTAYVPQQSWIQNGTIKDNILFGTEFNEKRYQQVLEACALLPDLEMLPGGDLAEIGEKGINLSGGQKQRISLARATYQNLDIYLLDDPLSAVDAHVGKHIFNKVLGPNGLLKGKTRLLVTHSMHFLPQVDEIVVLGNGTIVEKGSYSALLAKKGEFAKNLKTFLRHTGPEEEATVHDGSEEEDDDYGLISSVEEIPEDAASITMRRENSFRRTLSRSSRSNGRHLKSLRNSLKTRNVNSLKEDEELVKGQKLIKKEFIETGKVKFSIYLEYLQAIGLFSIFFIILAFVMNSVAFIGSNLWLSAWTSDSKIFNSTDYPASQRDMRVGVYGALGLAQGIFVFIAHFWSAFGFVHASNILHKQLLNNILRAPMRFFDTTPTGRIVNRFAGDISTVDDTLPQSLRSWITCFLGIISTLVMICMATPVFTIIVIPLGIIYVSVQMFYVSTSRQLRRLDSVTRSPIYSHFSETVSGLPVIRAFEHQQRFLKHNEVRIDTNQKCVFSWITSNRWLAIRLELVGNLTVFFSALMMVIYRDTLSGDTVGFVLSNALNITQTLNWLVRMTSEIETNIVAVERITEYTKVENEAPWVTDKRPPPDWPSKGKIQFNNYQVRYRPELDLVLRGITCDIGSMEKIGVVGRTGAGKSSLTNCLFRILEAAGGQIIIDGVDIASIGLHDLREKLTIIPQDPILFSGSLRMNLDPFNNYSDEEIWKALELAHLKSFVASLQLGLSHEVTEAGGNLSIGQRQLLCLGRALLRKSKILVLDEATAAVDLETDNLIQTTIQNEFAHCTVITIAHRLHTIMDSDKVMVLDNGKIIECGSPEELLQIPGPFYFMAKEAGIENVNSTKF
Chain of ATP-binding cassette sub-family C member 3 (O15438 whole entry): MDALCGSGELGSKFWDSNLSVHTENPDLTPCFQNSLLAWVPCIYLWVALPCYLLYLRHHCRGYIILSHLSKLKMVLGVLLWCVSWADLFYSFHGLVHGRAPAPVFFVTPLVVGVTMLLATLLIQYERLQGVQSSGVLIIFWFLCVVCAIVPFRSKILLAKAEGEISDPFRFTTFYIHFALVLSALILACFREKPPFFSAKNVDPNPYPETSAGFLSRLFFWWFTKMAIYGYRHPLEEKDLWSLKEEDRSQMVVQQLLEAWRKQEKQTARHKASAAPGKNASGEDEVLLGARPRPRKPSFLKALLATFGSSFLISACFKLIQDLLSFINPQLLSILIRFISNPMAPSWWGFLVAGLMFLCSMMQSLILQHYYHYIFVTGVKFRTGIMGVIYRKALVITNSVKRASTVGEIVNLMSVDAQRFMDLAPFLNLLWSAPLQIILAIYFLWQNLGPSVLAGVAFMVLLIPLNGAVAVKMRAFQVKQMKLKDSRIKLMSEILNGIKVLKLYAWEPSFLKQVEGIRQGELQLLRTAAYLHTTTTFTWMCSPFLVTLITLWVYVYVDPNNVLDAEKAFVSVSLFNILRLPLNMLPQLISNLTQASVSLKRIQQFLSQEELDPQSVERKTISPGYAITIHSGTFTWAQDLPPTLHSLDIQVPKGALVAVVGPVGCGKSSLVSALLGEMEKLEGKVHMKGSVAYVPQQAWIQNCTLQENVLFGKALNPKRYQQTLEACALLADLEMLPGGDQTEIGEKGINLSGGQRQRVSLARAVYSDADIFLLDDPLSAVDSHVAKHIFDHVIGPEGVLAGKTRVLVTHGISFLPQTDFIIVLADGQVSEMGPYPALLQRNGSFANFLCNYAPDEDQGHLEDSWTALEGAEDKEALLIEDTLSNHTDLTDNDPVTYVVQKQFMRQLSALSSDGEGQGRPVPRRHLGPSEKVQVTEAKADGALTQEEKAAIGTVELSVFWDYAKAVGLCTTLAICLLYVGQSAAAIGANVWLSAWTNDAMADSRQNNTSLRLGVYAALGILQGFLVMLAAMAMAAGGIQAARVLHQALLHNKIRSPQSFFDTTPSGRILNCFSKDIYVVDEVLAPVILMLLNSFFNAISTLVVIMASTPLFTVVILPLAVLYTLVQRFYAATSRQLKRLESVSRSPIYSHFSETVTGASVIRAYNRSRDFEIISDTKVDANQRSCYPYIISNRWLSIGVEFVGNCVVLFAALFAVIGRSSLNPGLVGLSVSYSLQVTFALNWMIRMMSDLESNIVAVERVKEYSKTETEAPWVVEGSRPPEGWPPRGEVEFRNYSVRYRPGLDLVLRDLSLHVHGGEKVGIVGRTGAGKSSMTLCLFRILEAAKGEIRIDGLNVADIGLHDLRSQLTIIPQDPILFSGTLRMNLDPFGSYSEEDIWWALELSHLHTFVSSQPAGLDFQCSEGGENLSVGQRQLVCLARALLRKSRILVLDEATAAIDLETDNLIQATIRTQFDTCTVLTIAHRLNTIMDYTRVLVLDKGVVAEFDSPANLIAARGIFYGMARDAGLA

Regarding `Cc1nc(Nc2ncc(C(=O)Nc3c(C)cccc3Cl)s2)cc(N2CCN(CCO)CC2)n1.O` [DASATINIB], the pIC50 was 4.56 in data set [1], 4.88 in data set [6], < 3.88 in [8] and < 3.88 in data set [11]. Besides, the AUC at 12 h in [2] and in data set [10] was 0.624 µM·h in each case. In addition, the concentration at 12 h in data set [3] and in [4] was 52 nM throughout. Moreover, the Ratio in [5] is recorded as 0.002; in [7] it was 0.004; in data set [9], 0.004; in data set [12], 0.002.
For `CO[C@H]1/C=C/O[C@@]2(C)Oc3c(C)c(O)c4c(c3C2=O)C2=NC3(CCN(CC(C)C)CC3)NC2=C(NC(=O)/C(C)=C\C=C\[C@H](C)[C@H](O)[C@@H](C)[C@@H](O)[C@@H](C)[C@H](OC(C)=O)[C@@H]1C)C4=O` [RIFABUTIN], the values for the pIC50 in [1], in [8] and in [11] were 4.80, 4.30 and < 3.88, respectively. Also, the AUC at 24 h in data set [13] worked out at 2.43 µM·h. Moreover, in [14], the concentration at 24 h is 101 nM. Also, the Ratio in [15] came out at 0.002; in data set [16], 0.006; in data set [17], 0.004.
Turning to `COc1ccc2[nH]c([S+]([O-])Cc3ncc(C)c(OC)c3C)nc2c1` (centres undefined) [OMEPRAZOLE], the pIC50 is < 3.88 in data set [1], 4.00 in [6], < 3.88 in data set [8] and < 3.88 in data set [11]. In addition, the Ratio in data set [18] was 0.005. Besides, the Css in [19] amounted to 0.4682 µM. Further, in data set [20], the AUC at 24 h worked out at 11.2 µM·h.
On to `C[C@]12CCC(=O)C=C1[C@@H]1C[C@@H]1[C@H]1[C@@H]3[C@@H]4C[C@@H]4[C@@]4(CCC(=O)O4)[C@@]3(C)CC[C@@H]12` [DROSPIRENONE], for which the results for the pIC50 in [1], in data set [6] and in [11] were 4.42, 4.79 and < 3.88, respectively. In addition, the concentration at 24 h in data set [21] was 91 nM. The Ratio in data set [22] amounted to 0.002; in data set [23], 0.006. The AUC at 24 h in data set [24] worked out at 2.18 µM·h.
